Earlier results on one compound are cited in patent publication US4749688A, “Use of neutral metalloendopeptidase inhibitors in the treatment of hypertension” (Schering Corporation, priority 1986, dated 1988).

Series [1] concerns the target peripheral ACE (Homo sapiens, UniProt P12821).
The conditions of series [2]: in vivo.

Chain of peripheral ACE (P12821 30-1306): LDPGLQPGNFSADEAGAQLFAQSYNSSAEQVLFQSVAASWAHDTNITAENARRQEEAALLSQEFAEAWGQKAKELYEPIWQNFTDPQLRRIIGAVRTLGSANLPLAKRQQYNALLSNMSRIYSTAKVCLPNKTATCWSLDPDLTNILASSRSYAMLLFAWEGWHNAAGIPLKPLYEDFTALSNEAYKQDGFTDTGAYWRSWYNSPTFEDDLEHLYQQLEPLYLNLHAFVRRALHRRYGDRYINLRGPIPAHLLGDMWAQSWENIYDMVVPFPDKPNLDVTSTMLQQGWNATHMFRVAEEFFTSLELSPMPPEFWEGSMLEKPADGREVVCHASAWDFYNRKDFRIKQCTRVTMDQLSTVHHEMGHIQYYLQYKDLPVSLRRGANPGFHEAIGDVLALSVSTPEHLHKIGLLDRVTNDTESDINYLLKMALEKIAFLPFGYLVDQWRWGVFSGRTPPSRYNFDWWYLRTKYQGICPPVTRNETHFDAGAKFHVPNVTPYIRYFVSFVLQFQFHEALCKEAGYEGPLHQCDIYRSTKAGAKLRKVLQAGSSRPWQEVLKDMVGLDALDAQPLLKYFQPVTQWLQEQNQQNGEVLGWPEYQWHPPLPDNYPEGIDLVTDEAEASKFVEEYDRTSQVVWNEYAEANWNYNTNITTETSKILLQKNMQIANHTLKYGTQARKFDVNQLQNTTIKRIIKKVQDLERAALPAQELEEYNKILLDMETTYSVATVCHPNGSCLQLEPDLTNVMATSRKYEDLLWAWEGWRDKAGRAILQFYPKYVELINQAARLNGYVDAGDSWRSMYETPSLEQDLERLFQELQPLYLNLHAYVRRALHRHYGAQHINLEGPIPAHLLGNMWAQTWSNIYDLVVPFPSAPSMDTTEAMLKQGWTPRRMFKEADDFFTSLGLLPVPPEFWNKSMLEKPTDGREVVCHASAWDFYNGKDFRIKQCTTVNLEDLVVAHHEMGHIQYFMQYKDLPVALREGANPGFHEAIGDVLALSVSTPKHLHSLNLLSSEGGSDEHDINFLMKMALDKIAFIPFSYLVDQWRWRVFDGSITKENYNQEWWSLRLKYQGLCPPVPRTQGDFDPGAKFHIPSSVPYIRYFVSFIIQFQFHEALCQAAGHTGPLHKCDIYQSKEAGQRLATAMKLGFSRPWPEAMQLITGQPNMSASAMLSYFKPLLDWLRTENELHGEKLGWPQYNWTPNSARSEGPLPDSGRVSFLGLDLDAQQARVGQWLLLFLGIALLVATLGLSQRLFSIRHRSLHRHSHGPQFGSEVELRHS

With `O=C(O)CNC(=O)C(CS)Cc1ccccc1` (racemic) [thiorphan, N-[(R,S)-3-mercapto-2-benzylpropanoyl]-glycine], the “inhibition of peripheral ACE” value in series [1] is recorded as “inhibit peripheral ACE”. In series [2], the blood pressure result was “not affected” and the heart rate result was “not affected”.
